Laboratory results taken from patent US7666587B2, “Method of screening test substances for treating or preventing a disease mediated by plasma cells” (priority 2002, dated 2010).
Residues, ends and D or L forms follow the SMILES beside them. *: point of attachment. Cbz = O=C(OCc1ccccc1)*

Tests used:
[1] = test system: XBP-1; assay: Metabolic pulse labelling and immunoprecipitation of endogenous XBP-1 proteins; type: cell-based, mouse
Description: Mouse embryonic fibroblasts and ES cells lacking IRE1 activity (IRE1α−/− or IRE1α, IRE1β−/−) and PERK−/−fibroblasts were cultured as previously described (Harding et al., “Regulated Translation Initiation Controls Stress-Induced Gene Expression in Mammalian Cells,” Mol. Cell 6:1099-1108 (2000); and Urano et al., “Coupling of Stress in the Endoplasmic Reticulum to Activation of JNK Protein Kinases by Transmembrane Protein Kinase IRE1,” Science 287:664-666 (2000), which are hereby incorporated by reference in their entirety). Cells were treated with tunicamycin (2.5 μg/ml, Calbiochem), thapsigargin (100 nM, Sigma), dithiothreitol (2 mM, Sigma) or the proteasome inhibitor MG132 (25 μM, Calbiochem) as indicated. To prepare B-cell blasts, cells were teased from crushed adult mouse spleen and cultured in the presence of 25 μg/ml E. coli lipopolysaccharide.
Newly synthesized proteins were labeled in vivo with ^35S-methionine and ^35S-cysteine (500 μCi/ml, Translabel, ICN Biochemicals). After removal of the labeling media cells were washed and incubated in complete media for cold-chase. […] Incorporation of radiolabel was quantified by phosphoimager analysis. In calculating the relative synthesis rates of 54 kDa XBP-1 and 33 kDa XBP-1 the relative incorporation of label was corrected for differences in the content of methionine (7:6) and cysteine (4:3) predicted for the two proteins. […]

[2] = test system: XBP-1; assay: XBP-1 immunoblot during in vitro differentiation of B-cells to plasma cells; type: cell-based; settings: mouse spleen cells, 25 μg/ml E. coli lipopolysaccharide
Description: (§1) Mouse embryonic fibroblasts and ES cells lacking IRE1 activity (IRE1α−/− or IRE1α, IRE1β−/−) and PERK−/−fibroblasts were cultured as previously described (Harding et al., “Regulated Translation Initiation Controls Stress-Induced Gene Expression in Mammalian Cells,” Mol. Cell 6:1099-1108 (2000); and Urano et al., “Coupling of Stress in the Endoplasmic Reticulum to Activation of JNK Protein Kinases by Transmembrane Protein Kinase IRE1,” Science 287:664-666 (2000), which are hereby incorporated by reference in their entirety). Cells were treated with tunicamycin (2.5 μg/ml, Calbiochem), thapsigargin (100 nM, Sigma), dithiothreitol (2 mM, Sigma) or the proteasome inhibitor MG132 (25 μM, Calbiochem) as indicated. […]
(§2) XBP-1 proteins in whole cell extracts were detected by immunoblot of 9% PAGE-SDS using a rabbit polyclonal serum directed to residues 97-267 common to both 54 kDa and 33 kDa XBP-1 proteins (sc-7160, Santa Cruz Biotechnology). XBP-1 proteins in transfected cells were detected by a monoclonal antibody to the FLAG epitope tag (Kodak-IBI). CREB and CHOP were detected as described previously (Harding et al., “Regulated Translation Initiation Controls Stress-Induced Gene Expression in Mammalian Cells,” Mol. Cell 6:1099-1108 (2000), which is hereby incorporated by reference in its entirety).

[3] = test system: hsp-4::gfp; assay: hsp-4::gfp transcriptional reporter induction in C. elegans (UPR); type: in vivo; settings: gut and hypodermis; plates containing 5 μg/ml tunicamycin
Source text: A 1.1 kilobase (Kb) fragment of C. elegans genomic DNA immediately 5′ of the predicted initiation ATG of hsp-4 was amplified by PCR and ligated in-frame with GFP in the plasmid pPD95.75 (gift of Andy Fire, Carnegie Institute of Washington). The hsp-4::gfp(zcIs4) V strain was generated by co-injecting the hsp-4::gfp clone with the lin-15 rescuing plasmid, pSK1 (Clark et al., “The Caenorhabditis elegans Locus Lin-15, a Negative Regulator of a Tyrosine Kinase Signaling Pathway, Encodes Two Different Proteins,” Genetics 137:987-997 (1994), which is hereby incorporated by reference in its entirety), into lin-15(n765ts) animals and then integrating the extrachromosomal array with ultraviolet/trimethylpsoralen (UV/TMP) treatment. The F2 progeny of ethylmethane sulphonate (EMS)-treated hsp-4::gfp(zcIs4)V animals were screened for mutants with high levels of GFP expression to identify mutations that constitutively induce the UPR. Several mutations were recovered, including upr-1(zc6)X, which induced a high level of GFP expression in the posterior gut. To isolate mutations that blocked hsp-4::gfp induction, the F2 progeny of EMS-treated hsp-4::gfp(zcIs4) V; upr-1(zc6)X animals were screened for mutants with a reduced GFP signal. The mutations were mapped using standard methods. […]

[4] = test system: XBP-1; assay: Immunoblot of FLAG-tagged XBP-1 in transfected HEK 293T cells; type: cell-based, human; settings: HEK 293T cells transfected with XBP-1^up
Description: as §1, §2

## CC(C)C[C@@H](C=O)NC(=O)[C@H](CC(C)C)NC(=O)[C@H](CC(C)C)NC(=O)OCc1ccccc1 [proteasome inhibitor, MG132] (Cbz-Leu-Leu-Leu-aldehyde)
[1]; mouse fibroblasts, MG132 25 μM
  levels of 33 kDa XBP-1 protein: increased further

## bacterial lipopolysaccharide
[2]
  induction of 54 kDa XBP-1 protein: induced

## tunicamycin
[3]
  hsp-4::gfp expression: strongly induced
[4]
  expression of FLAG-tagged 54 kDa XBP-1 protein: expressed high levels of FLAG-tagged 54 kDa protein
[1]; pulse-labeled wildtype cells, tunicamycin 2.5 μg/ml
  accumulation of endogenous 54 kDa XBP-1: accumulated to high levels
